Reference: ChEMBL document CHEMBL1201862, “PubChem BioAssay data set” (2004)
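Following 48 hours of exposure in 96-well plates, responses at five concentrations were used to interpolate endpoints linearly. At the GI50, growth is halved.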 The source made the active and inactive calls. Cut-off read from the data, not from the text of the source: active = GI50 up to about 1.1 µM and inactive = higher.

Columns and labels:
Experiment in all cases: NCI tumour cell line growth inhibition, 48 h
786-0 = tested on: 786-0
HT-29 = tested on: HT-29
KM-20L2 = tested on: KM-20L2
KM12 = tested on: KM12
NCI-H460 = tested on: NCI-H460
SK-MEL-2 = tested on: SK-MEL-2
SN12C = tested on: SN12C
SNB-19 = tested on: SNB-19
SW-620 = tested on: SW-620
TK-10 = tested on: TK-10
COLO 205 = tested on: COLO 205
HCT-116 = tested on: HCT-116
LOX IMVI = tested on: LOX IMVI
RXF 393 = tested on: RXF 393
SF-539 = tested on: SF-539
SK-OV-3 = tested on: SK-OV-3

Measured: GI50

COc1ccc(C[C@@H]2Cc3cc(OC)c(OC)cc3CN2C)cc1
inactive: 786-0 > 100 µM | HT-29 > 100 µM | KM-20L2 > 100 µM | KM12 > 100 µM | NCI-H460 > 100 µM | SK-MEL-2 > 100 µM | SN12C > 100 µM | SNB-19 > 100 µM | SW-620 > 100 µM | TK-10 > 100 µM

O=S(=O)(OI(OI(OS(=O)(=O)C(F)(F)F)c1ccccc1)c1ccccc1)C(F)(F)F
inactive: 786-0 50.4 µM | COLO 205 51.2 µM | HCT-116 23.7 µM | KM-20L2 71.6 µM | KM12 28.2 µM | LOX IMVI 20 µM | NCI-H460 39.5 µM | RXF 393 17.3 µM | SF-539 86.3 µM | SK-MEL-2 38.5 µM | SN12C 49.8 µM | SNB-19 44.3 µM | SW-620 32 µM | TK-10 > 100 µM

Cc1ccc(C2=CC(=O)c3ccccc3C2=O)n1-c1ccccc1
inactive: 786-0 > 100 µM | COLO 205 > 100 µM | HCT-116 62.1 µM | HT-29 > 100 µM | KM-20L2 > 100 µM | KM12 43.1 µM | LOX IMVI > 100 µM | NCI-H460 48 µM | RXF 393 > 100 µM | SF-539 89.9 µM | SK-OV-3 > 100 µM | SN12C > 100 µM | SNB-19 35.6 µM | SW-620 > 100 µM | TK-10 > 100 µM

COC(=O)/C(C#N)=C1\CCC(C(=O)OC)N1C (configuration not stated)
inactive: 786-0 > 100 µM | COLO 205 > 100 µM | HCT-116 > 100 µM | KM-20L2 > 100 µM | KM12 > 100 µM | NCI-H460 > 100 µM | RXF 393 > 100 µM | SF-539 > 100 µM | SK-MEL-2 > 100 µM | SK-OV-3 > 100 µM | SN12C > 100 µM | SNB-19 > 100 µM | TK-10 > 100 µM

O=c1c2cc(Br)ccc2nc(-c2ccccc2Cl)n1NCC1(O)OCC(O)C(O)C1O (configuration not stated)
inactive: 786-0 > 100 µM | COLO 205 > 100 µM | HCT-116 > 100 µM | HT-29 > 100 µM | KM-20L2 > 100 µM | KM12 > 100 µM | LOX IMVI > 100 µM | NCI-H460 > 100 µM | RXF 393 > 100 µM | SK-MEL-2 > 100 µM | SK-OV-3 > 100 µM | SN12C > 100 µM | SNB-19 > 100 µM | SW-620 > 100 µM

Cc1cccc(N2C(=O)C(=O)C(c3nc4ccccc4s3)/C(=N/NC(=S)NN)C2=O)c1C (configuration not stated)
inactive: 786-0 > 100 µM | COLO 205 > 100 µM | HCT-116 > 100 µM | KM-20L2 > 100 µM | KM12 > 100 µM | LOX IMVI > 100 µM | NCI-H460 > 100 µM | RXF 393 > 100 µM | SF-539 > 100 µM | SK-MEL-2 > 100 µM | SK-OV-3 > 100 µM | SN12C > 100 µM | SNB-19 > 100 µM | SW-620 > 100 µM | TK-10 > 100 µM

COc1c(C(=O)c2ccc([N+](=O)[O-])cc2)cc(C(C)(C)C)cc1C(C)(C)C
inactive: 786-0 40.9 µM | HCT-116 18.8 µM | HT-29 28.7 µM | KM-20L2 35.6 µM | KM12 16.9 µM | LOX IMVI 12.3 µM | NCI-H460 32.4 µM | RXF 393 17.1 µM | SF-539 64.4 µM | SK-MEL-2 13.4 µM | SK-OV-3 > 100 µM | SN12C 39 µM | SNB-19 48.5 µM | SW-620 48.6 µM | TK-10 13.8 µM

CCCCC1(C)C=C/C(=C2/C(=O)O/C(=C\C(=O)O)C2=O)O1 (configuration not stated)
inactive: 786-0 > 100 µM | COLO 205 > 100 µM | HCT-116 > 100 µM | HT-29 > 100 µM | KM-20L2 > 100 µM | KM12 > 100 µM | LOX IMVI > 100 µM | NCI-H460 > 100 µM | SF-539 > 100 µM | SK-MEL-2 > 100 µM | SK-OV-3 > 100 µM | SN12C > 100 µM | SNB-19 > 100 µM | SW-620 > 100 µM | TK-10 > 100 µM

Cc1cccc(C)c1CO
inactive: 786-0 > 100 µM | COLO 205 > 100 µM | HCT-116 > 100 µM | HT-29 > 100 µM | KM-20L2 > 100 µM | KM12 > 100 µM | LOX IMVI > 100 µM | NCI-H460 > 100 µM | RXF 393 > 100 µM | SF-539 > 100 µM | SK-MEL-2 > 100 µM | SK-OV-3 > 100 µM | SN12C > 100 µM | SNB-19 > 100 µM | SW-620 > 100 µM

OCc1c[te]c(-c2ccccc2)c1
inactive: 786-0 > 100 µM | HCT-116 17.5 µM | HT-29 > 10 µM | KM-20L2 > 100 µM | KM12 80.5 µM | NCI-H460 31 µM | RXF 393 42.2 µM | SF-539 28.4 µM | SK-MEL-2 25.8 µM | SK-OV-3 > 100 µM | SN12C 16 µM | SW-620 > 100 µM | TK-10 > 100 µM

C(=N\Nc1ccccc1)/c1nc2ccccc2nc1/C=N/Nc1ccccc1
inactive: 786-0 15.6 µM | HCT-116 12.7 µM | HT-29 10.8 µM | KM-20L2 8.73 µM | KM12 13 µM | LOX IMVI 9.25 µM | NCI-H460 13.9 µM | RXF 393 16.3 µM | SF-539 14.8 µM | SK-MEL-2 18.2 µM | SK-OV-3 22 µM | SN12C 16.2 µM | SNB-19 18.9 µM | SW-620 14.9 µM | TK-10 15.8 µM

COc1cc(C2C(C(=O)Nc3ccccc3)=C(C)NC(C)=C2C(=O)Nc2ccccc2)ccc1O
inactive: 786-0 37.8 µM | COLO 205 24.2 µM | HCT-116 34.5 µM | HT-29 18.7 µM | KM-20L2 20.1 µM | KM12 31 µM | LOX IMVI > 10 µM | NCI-H460 43.7 µM | RXF 393 > 100 µM | SF-539 21.6 µM | SK-MEL-2 28.6 µM | SN12C 39.5 µM | SNB-19 33.7 µM | SW-620 37.9 µM | TK-10 > 100 µM

CN(C)c1ccc(-c2cc(O)c3cc4c(cc3n2)OCO4)cc1
inactive: 786-0 > 100 µM | COLO 205 > 100 µM | HCT-116 > 100 µM | HT-29 > 100 µM | KM-20L2 > 100 µM | LOX IMVI > 100 µM | NCI-H460 > 100 µM | RXF 393 > 100 µM | SF-539 > 100 µM | SK-MEL-2 > 100 µM | SN12C > 100 µM | SNB-19 > 100 µM | SW-620 > 100 µM | TK-10 > 100 µM

C=CCC1(CC)C(=O)NC(=O)NC1=O [ETALLOBARBITAL]
inactive: 786-0 > 100 µM | COLO 205 > 100 µM | HCT-116 > 100 µM | KM-20L2 > 100 µM | KM12 > 100 µM | LOX IMVI > 100 µM | NCI-H460 > 100 µM | RXF 393 > 100 µM | SF-539 > 100 µM | SK-OV-3 > 100 µM | SN12C > 100 µM | SNB-19 > 100 µM | SW-620 > 100 µM | TK-10 > 100 µM
